Earlier results in patent US6818672B1, “Treating endometriosis or infertility, or improving fertility” (Columbia Laboratories, Inc., priority 1999, dated 2004).

Key:
[1] = test system: myometrial activity, uterine blood flow, lower abdominal pain
[2] = intravenous administration

In the case of `CC(C)(C)NCC(O)c1cc(O)cc(O)c1` (centres unmarked) [terbutaline, 5-[2-[(1,1-dimethylethyl)amino]-1-hydroxyethyl]-1,3-benzenediol], the “Duration of effect of each spray” value ([1]; terbutaline inhalation, severe pain in essential dysmenorrhea) is given as 1 h, the “Effect on myometrial activity, uterine blood flow and pain in dysmenorrhea” value ([1]; women with primary dysmenorrhea) is given as “inhibit myometrial activity, increase blood flow to the uterus, and relieve the pain” and the Bioavailability (after oral administration, extensive first-pass sulphation) is given as 15 and 20%. The “Decrease of bioavailability by concomitant food intake” value (oral administration with concomitant food intake) was 30% and the Adverse effects [2] was “palpitations and peripheral tremors”.
